# What was measured:
# M. bovis BCG = format: cell-based
# [1] = test system: Mycobacterium tuberculosis H37Rv; format: cell-based; details: M. tuberculosis H37Rv, 1 mg/mL, 1 hour, head gas, control subtracted
smiles,measurement,setting,value
[15NH2][15NH]C(=O)c1ccncc1 [^15N2-hydrazyl-INH],"30/28 mass signal in nitrogen gas, dependency on CFU",M. bovis BCG,proportional to CFU/mL
same,"30/28 mass signal in nitrogen gas, dose dependence",M. bovis BCG,dependent upon dose
same,"30/28 mass signal in nitrogen gas, time dependence",M. bovis BCG,"increase in the signal over the course of an hour, which then begins to decrease by 4 hours"
same,"30/28 mass signal in nitrogen gas, dependency on CFU",[1],proportional to CFU/mL

# From US9453253B2, “Methods of using isotopically labelled isoniazid for the diagnosis of mycobacterial infections” (priority 2012, dated 2016)
